Results reported in article PMC11601876, “Manganese-based type I collagen-targeting MRI probe for in vivo imaging of liver fibrosis” (Research Square, 2024).

What was measured:
[1] = Kinetic inertness: Mn2+ dissociation upon Zn2+ challenge; assay type: physicochemical; conditions: 0.5 mM Mn2+ (0.167 mM Mn-CBP20), 10 mM Zn(OTf)2, pH 7.4 50 mM Tris/18 mM citrate, 27 °C, monitored by r2 change at 1.4T
Experimental: Figure 2. In vitro assays for collagen binding and kinetic inertness.
To assess kinetic inertness to Mn^2+ release, we evaluated Mn^2+ dissociation kinetics upon challenge of 0.167 mM Mn-CBP20 (0.5 mM Mn^2+) with 10 mM Zn(OTf)2 in the presence of pH 7.4 50 mM Tris/ 18 mM citrate buffer, Figure 2B. The presence of a weak chelator such as citrate is required to maintain homogenous reaction conditions during the course of the measurement, as treatment of Mn-CBP20 with even 1 mol equiv. […] Mn^2+ dissociation was monitored by observing change in r2. Under this set of assay conditions, the r2 value associated with dissociated Mn^2+ (16.3 mM^−1s^−1) is approximately half that of Mn^2+ bound within Mn-CBP20. As positive control, we monitored Mn^2+ dissociation from the kinetically inert complex Mn-CDTA (r2 = 5.9 mM^−1s^−1).

[2] = rats; in words; cited from earlier work
Text: Whole body PET-CT images recorded 1 and 7 days after [^52Mn]Mn-CBP20 injection are shown in Figure 6A and ex vivo ^52Mn biodistribution data are shown in Figure 6B and 6C and also tabulated in Supplementary Tables 1 and 2. The highest concentration of ^52Mn 1 day after injection is found in the kidneys, consistent with the expected renal elimination of the compound.

## O=C([O-])CN(CC(=O)[O-])C1CCCCC1N(CC(=O)[O-])CC(=O)[O-].[Mn+2] (centres unmarked) [Mn-CDTA]
[1]
  half-life (t1/2) of Mn2+ dissociation: 15.5 h

## Mn-DPDP
[2]
  52Mn uptake in salivary glands relative to other tissues: high and persistent ^52Mn uptake in the salivary glands relative to other tissues
